Data set [1] deals with normal primary human dermal fibroblast. As to the kind of experiment: Cytotoxic effect in normal cells, Cell Titer 96 Aqueous One cell proliferation assay, fibroblasts. The format is cell-based. As to conditions: 48 h of incubation. The procedure:
(§1) Primary dermal neonatal fibroblasts (PCS-201-010) and lung adenocarcinoma cell lines (A549 and H1975) were acquired from ATCC (Manassas, VA, USA). […] All experiments were conducted at 37 °C, 5% (v/v) CO2, and 99% humidity in the dark. For simplicity, the supplemented media will be referred from now on as DMEM. NSCLC cell lines used in this work represent two different cancer models with different driver mutations[27] (Table 1). […] Doxorubicin (1.5 μM) was used as a positive control and 0.1% (v/v) DMSO was used as a vector control in all biological replicates. After 48 h of incubation, cell viability was measured using the Cell Titer 96® Aqueous One solution cell proliferation assay (Promega, Madison, WI, USA) according to the manufacturer's instructions and procedures described previously.[26,28] The absorbance of the formazan produced was quantified with a Tecan microplate reader (Infinite M200 (Tecan, Mannedorf, Switzerland)) and analysis of the dose–response curves to determine the relative IC50 was performed with GraphPad Prism 8 software (GraphPad Software, La Jolla, CA, USA). The selectivity index (IC50 fibroblasts/IC50 lung cancer cell line) was used as a measurement of the specificity of MTX salts for lung cancer cells.

Data set [2] is described as follows: Solubility in water, visually determined. As to the method:
To study the solubility and stability of the MTX salts, two different assays were performed. To measure the solubility, 1 μL of water was added dropwise to 1 mg of MTX salt and the solubility was visually determined.

The subject of a further data set is H1975. The experiment in a line: Antiproliferative activity, Cell Titer 96 Aqueous One cell proliferation assay, H1975. Format: cell-based, human. As to conditions: for IC50: H1975, 48 h of incubation; for SI (H1975): selectivity index, IC50 fibroblasts/IC50 H1975. As to the method:
as §1

For a further data set, the system named is A549. The experiment in a line: Antiproliferative activity, Cell Titer 96 Aqueous One cell proliferation assay, A549. Particulars: for IC50: A549, 48 h of incubation; for SI (A549): selectivity index, IC50 fibroblasts/IC50 A549. Format: cell-based, human. As to the method: as §1
Another data set deals with A549 cells. The experiment in a line: Evaluation of apoptosis, annexin V/PI double staining, flow cytometry. Particulars: A549, 48 h of exposure to IC50 (DOX 1.5 μM). The format is cell-based, human. The procedure: A549 cells were seeded on 6-well plates at a density of 2 × 10^5 cells per well and incubated for 48 h with the IC50 of salts ([C12mim]2[MTX], [C10mim]2[MTX], and [C10-3-picoline]2[MTX]) previously determined. Doxorubicin (1.5 μM) was used as a positive control and 0.1% (v/v) DMSO as a vector control. Cells were then detached from the wells and double stained using dead cell apoptosis annexin V (Thermo Fisher Scientific) according to the manufacturer's instructions. The percentage of live cells (unstained), cells in initial apoptosis (stained with annexin V-Alexa Fluor 488), cells in late apoptosis (double stained with annexin V-Alexa Fluor 488 and propidium iodide), or cells in necrosis (stained with propidium iodide) were quantified using an Attune acoustic focusing flow cytometer and the respective software (Thermo Fisher Scientific).
Cellular apoptosis is a process that leads to cell death. Using annexin V and propidium iodide (PI), cells could be divided into live cells, early apoptotic cells, late apoptotic cells, or necrotic cells, based on the differences in plasma membrane of these different stages. PI only enters cells with a permeabilized and/or compromised membrane (late apoptotic and necrotic cells, respectively), while annexin V-FITC binds to phosphatidylserine that translocates from the inner side of the plasma membrane to the outer side, staining cells in initial/late apoptosis.[31]

On the set-up of data set [3]: method as in PMID 23292116. As to conditions: low solubility and low permeability; cited from earlier work.
Data set [4] is described as follows: UV-vis spectroscopy stability assay in DMEM biological medium. As to conditions: 48 h period of the biological assays. The format is physicochemical.
Details of data set [5]: method as in doi:10.1016/j.trac.2017.09.009. Particulars: cited from earlier work.

≈ marks a conversion by molar mass, not a printed value. Where two headings read alike, the source gives them in different places. Where only a bound is given, the exact number is not on record here.

Usually IC50 stands for the point on the concentration scale where inhibition reaches its midpoint. Broadly, the Solubility is how much of the substance goes into solution per volume. In data set [1], `CCCCCCCCCC[n+]1cccc(C)c1.CCCCCCCCCC[n+]1cccc(C)c1.CN(Cc1cnc2nc(N)nc(N)c2n1)c1ccc(C(=O)N[C@@H](CCC(=O)[O-])C(=O)[O-])cc1` [[C10-3-picoline]2[MTX]] yielded an IC50 of 10.6 ± 1.03 µM. Also, in data set [2] (in water at room temperature), the “Solubility” value is 138.9 mg/mL. In the data set on H1975, 29.1 ± 1.46 µM corresponded to half-maximal inhibition (IC50) and the “SI (H1975)” value came to 0.4. In addition, in the data set on A549, 0.94 ± 0.03 µM corresponded to half-maximal inhibition (IC50) and the “SI (A549)” value was 11.3. Also, the “IC50 in the cancer cell line relative to [Na]2[MTX]” value in the data set with A549 (A549, compared to [Na]2[MTX]) was 4.06 fold. Moreover, in the data set with A549 cells, the Early apoptosis was determined as 14.9 ± 6.5%, the Late apoptosis came out at 9.4 ± 5.6%, the Live cells was determined as 75.3 ± 3.0% and the Necrosis is 0.02 ± 0.02%.

For the molecule `CCCCCCCCCCCCn1cc[n+](C)c1.[Br-]` [[C12mim][Br], reference compound], the IC50 in data set [1] was found to be 8.3 ± 0.92 µM. In the data set on H1975, the IC50 is 10.2 ± 1.01 µM and the “SI (H1975)” value is 0.8. Moreover, in the data set with A549, the IC50 stood at 0.6 ± 0.21 µM and the “SI (A549)” value amounted to 13.83.

As to `CCCCCCCCCCn1cc[n+](C)c1.[Br-]` [[C10mim][Br], reference compound], the figures for the IC50 (in data set [1]; in the data set on H1975; in the data set with A549) were over 50 µM, 19.2 ± 1.28 µM and 1.1 ± 0.02 µM, respectively. Moreover, the “SI (A549)” value in the data set on A549 is reported as 45.5.

For `CCCCCCCCCCCCn1cc[n+](C)c1.CCCCCCCCCCCCn1cc[n+](C)c1.CN(Cc1cnc2nc(N)nc(N)c2n1)c1ccc(C(=O)N[C@@H](CCC(=O)[O-])C(=O)[O-])cc1` [[C12mim]2[MTX]], the “Solubility” value in data set [2] (in water at room temperature) is 238.1 mg/mL. Moreover, in the data set with H1975, the IC50 was 2.72 ± 0.43 µM and the “SI (H1975)” value stood at 0.6. Also, in the data set on A549, the IC50 is 0.55 ± 0.25 µM and the “SI (A549)” value is recorded as 2.9. Moreover, in the data set on A549 cells, the Early apoptosis was determined as 16.7 ± 7.3%, the Late apoptosis was 10.2 ± 8.3%, the Live cells worked out at 72.9 ± 4.1% and the Necrosis was 0.1 ± 0.2%.

As for `CCCCCCCCCC[n+]1cccc(C)c1.[Br-]` [[C10-3-picoline][Br], reference compound], the IC50 in data set [1] is over 50 µM; in the data set on H1975 it was 29.3 ± 1.47 µM; in the data set with A549, 1.03 ± 0.01 µM. Besides, in the data set with A549, the “SI (A549)” value was 48.5.

Regarding `CN(Cc1cnc2nc(N)nc(N)c2n1)c1ccc(C(=O)NC(CCC(=O)[O-])C(=O)[O-])cc1.C[n+]1ccn(CCO)c1.C[n+]1ccn(CCO)c1` (stereo not drawn) [[C2OHmim]2[MTX]], in data set [2] (in water at room temperature), the “Solubility” value turned out to be 476.2 mg/mL. In the data set on A549, this molecule yielded an IC50 of over 50 µM.

Consider `CN(Cc1cnc2nc(N)nc(N)c2n1)c1ccc(C(=O)N[C@@H](CCC(=O)[O-])C(=O)[O-])cc1.Cc1ccc[n+](CCO)c1.Cc1ccc[n+](CCO)c1` [[C2OH-3-picoline]2[MTX]], for which the “Solubility” value in data set [2] (in water at room temperature) is 192.3 mg/mL. This molecule also returned an IC50 in the data set with A549 of over 50 µM.

Molecule `CN(Cc1cnc2nc(N)nc(N)c2n1)c1ccc(C(=O)NC(CCC(=O)[O-])C(=O)[O-])cc1.Cn1cc[n+](CCCCCCCCCCCCn2cc[n+](C)c2)c1` (stereo not drawn) [[MIMC12MIM][MTX]] displayed an IC50 in the data set with A549 of 12.4 ± 1.09 µM.

In the data set with A549 cells, `COc1cccc2c1C(=O)c1c(O)c3c(c(O)c1C2=O)C[C@@](O)(C(=O)CO)C[C@@H]3O[C@H]1C[C@H](N)[C@H](O)[C@H](C)O1` [DOX, Doxorubicin, reference compound] showed an Early apoptosis of 9.3 ± 7.1%, a Late apoptosis of 65.25 ± 30.4%, a Live cells of 1.7 ± 1.8% and a Necrosis of 23.7 ± 26.0%.

As to `CN(Cc1cnc2nc(N)nc(N)c2n1)c1ccc(C(=O)N[C@@H](CCC(=O)O)C(=O)O)cc1` [MTX, Methotrexate], in data set [3], the “Class in the biopharmaceutical classification system” value is listed as “class IV”. The same molecule yielded a Solubility in data set [2] of 0.01 mg/mL (≈ 22 µM). Also, the IC50 in the data set on A549 (Homo sapiens) was over 50 µM. The “Stability in DMEM biological medium” value in data set [4] is given as “stability was retained”. In data set [5], the “pKa (first acidic proton, carboxylic acid)” value is 2.9 and the “pKa (second acidic proton, carboxylic acid)” value is reported as 4.6.

Consider `CN(Cc1cnc2nc(N)nc(N)c2n1)c1ccc(C(=O)N[C@@H](CCC(=O)[O-])C(=O)[O-])cc1.[Na+].[Na+]` [[Na]2[MTX]] [reference compound], for which the results for the IC50 (in data set [1]; in the data set on H1975; in the data set with A549) were over 50 µM, over 50 µM and 3.82 ± 0.58 µM, respectively. In addition, in data set [2] (in water at room temperature), the “Solubility” value came out at 99.0 mg/mL.

In the data set on A549, `CCCCCCCCn1cc[n+](C)c1.CCCCCCCCn1cc[n+](C)c1.CN(Cc1cnc2nc(N)nc(N)c2n1)c1ccc(C(=O)NC(CCC(=O)[O-])C(=O)[O-])cc1` (stereo not drawn) [[C8mim]2[MTX]] yielded an IC50 of over 50 µM.

On to `CCCCCCn1cc[n+](C)c1.CCCCCCn1cc[n+](C)c1.CN(Cc1cnc2nc(N)nc(N)c2n1)c1ccc(C(=O)NC(CCC(=O)[O-])C(=O)[O-])cc1` (stereo not drawn) [[C6mim]2[MTX]], for which, in the data set with A549, the IC50 was over 50 µM.

In the data set on A549, `C[n+]1ccn(CCO)c1` [[C2OHmim][Br], reference compound] came in with an IC50 of over 50 µM.

Molecule `CCCCCCCCCCn1cc[n+](C)c1.CCCCCCCCCCn1cc[n+](C)c1.CN(Cc1cnc2nc(N)nc(N)c2n1)c1ccc(C(=O)N[C@@H](CCC(=O)[O-])C(=O)[O-])cc1` [[C10mim]2[MTX]] yielded an IC50 in data set [1] of 7.61 ± 0.88 µM. In addition, the “Solubility” value in data set [2] (in water at room temperature) came to 312.5 mg/mL. In addition, in the data set with H1975, 14.9 ± 1.17 µM corresponded to half-maximal inhibition (IC50) and the “SI (H1975)” value turned out to be 0.5. In addition, in the data set with A549, the IC50 worked out at 1.71 ± 0.23 µM and the “SI (A549)” value is recorded as 4.5. In the data set on A549 cells, this molecule returned an Early apoptosis of 14.9 ± 5.0%, a Late apoptosis of 10.7 ± 8.1%, a Live cells of 73.2 ± 5.0% and a Necrosis of 1.1 ± 1.8%.

The molecule `CCCCCCCCCCCC[N+](C)(C)CCO.CCCCCCCCCCCC[N+](C)(C)CCO.CN(Cc1cnc2nc(N)nc(N)c2n1)c1ccc(C(=O)NC(CCC(=O)[O-])C(=O)[O-])cc1` (stereo not drawn) [[N12,1,1,2OH]2[MTX]] returned an IC50 in the data set with A549 of 8.55 ± 0.93 µM.

In the data set with A549, `CCCCCCCCCC[N+](C)(C)CCO.CCCCCCCCCC[N+](C)(C)CCO.CN(Cc1cnc2nc(N)nc(N)c2n1)c1ccc(C(=O)N[C@@H](CCC(=O)[O-])C(=O)[O-])cc1` [[N10,1,1,2OH]2[MTX]] gave an IC50 of 19.2 ± 1.28 µM.

`CN(Cc1cnc2nc(N)nc(N)c2n1)c1ccc(C(=O)N[C@@H](CCC(=O)[O-])C(=O)[O-])cc1.C[N+](C)(C)CCO.C[N+](C)(C)CCO` [[Choline]2[MTX]]: in data set [2], the “Increase in solubility in water” value is listed as 10 fold and the “Solubility” value was determined as 1087.0 mg/mL. The same molecule showed an IC50 with A549 of over 50 µM.

With `C[N+](C)(C)CCO.[Cl-]` [[Choline][Cl], reference compound], the IC50 with A549 is over 50 µM.

`CCn1cc[n+](C)c1` [[C2MIM][Br], reference compound] displayed an IC50 with A549 of over 50 µM.

In the data set with A549, `Cc1ccc[n+](CCO)c1` [[C2OH 3-picoline][Br], reference compound] gave an IC50 of over 50 µM.

For `CCn1cc[n+](C)c1.CCn1cc[n+](C)c1.CN(Cc1cnc2nc(N)nc(N)c2n1)c1ccc(C(=O)NC(CCC(=O)[O-])C(=O)[O-])cc1` (stereo not drawn) [[C2MIM]2[MTX]], the “Solubility” value in data set [2] (in water at room temperature) was 500.0 mg/mL. The IC50 in the data set on A549 was over 50 µM.

The values above are taken from article PMC12121626, “Synthesis, characterization and biological activity of methotrexate-derived salts in lung cancer cells” (RSC Medicinal Chemistry, 2025).
